In US20200261440A1, “ZINC IONOPHORES AND USES THEREOF” (THE UNIVERSITY OF QUEENSLAND, priority 2017, published 2020):
Like-named read-outs stand apart in the source and are kept apart here. Marks after values point to notes of the source that are not given here.

Assays:
[1] = system: GAS strain HKU16 (Streptococcus pyogenes strain HKU16); assay: microbe, parasite or virus in culture; type: cell-based
Protocol: (§1) J. Path. Bact. […] Proc. Soc.
(§2) MIC assays were carried out in biological triplicates.
(§3) M100 Performance Standards for Antimicrobial Susceptibility Testing, 27th Edition.

[2] = system: Vancomycin-resistant Enterococci (VRE) clinical isolate RBWH1; assay: MIC by broth microdilution (CLSI); type: cell-based, Enterococcus; settings: for antibiotic sensitivity of resistant strain: addition of sub-inhibitory PBT2+zinc(II) ions
Protocol: as §1, §2, §3

GAS = assay: Drop test assay, growth on THY agar; type: cell-based, Streptococcus pyogenes; settings: PBT2 (1.5 μM), zinc(II) ions (400 μM)
Protocol: (§4) FIG. 1a illustrates growth of GAS, MRSA and VRE on THY agar in the presence or absence of PBT2 (1.5 μM) and zinc(II) ions (400 μM).
(§5) Bacteria were diluted from overnight cultures to get a starting OD600 of 0.01 in THY. Once the bacteria grew to an OD600 of 0.6, the culture were serially diluted in PBS and 5 μL of each dilution (undiluted, 10^−1, 10^−2, 10^−3, 10^−4, 10^−5) was plated on THY agar plates with or without zinc (400 μM) and/or PBT2 ([…]). Plates were incubated at 37° C. overnight. Drop tests were undertaken in biological triplicates.

MRSA = assay: Drop test assay, growth on THY agar; type: cell-based, Staphylococcus aureus; settings: PBT2 (1.5 μM), zinc(II) ions (400 μM)
Protocol: as §4, §5

VRE [3] = assay: Drop test assay, growth on THY agar; type: cell-based, Enterococcus; settings: PBT2 (1.5 μM), zinc(II) ions (400 μM)
Protocol: as §4, §5

[4] = humans; up to 250 mg/day (oral) for 12 weeks; cited from earlier work
[5] = system: Methicillin-resistant Staphylococcus aureus (MRSA) strain USA300; assay: MIC by broth microdilution (CLSI)
Protocol: GAS HKU16, MRSA USA300, VRE RBWH1, Klebsiella pneumoniae strain MS6771, E. coli strain MS8345 and Streptococcus pneumoniae strain 23F were grown in Todd-Hewitt broth (THB) or agar with 1% yeast extract (THY) [Todd, E. W. & Hewitt, L. F. A new culture medium for the production of antigenic streptococcal haemolysin. […] Bacteria were routinely grown at 37° C. in ambient air.
MICs were determined by broth microdilution in accordance to CLSI guidelines (“Methods for Dilution Antimicrobial Susceptibility Tests for Bacteria That Grow Aerobically”, Clinical and Laboratory Standards Institute) [Clinical and Laboratory Standards Institute. […] For MRSA, VRE, Klebsiella pneumoniae and E. coli the assays were performed in MHB, and for GAS and Streptococcus pneumoniae MHB+2.5% lysed horse blood (LHB) was used. The bacterial inoculum was prepared by direct colony suspension aiming for 2-8×10^5 colony forming units (CFU)/mL bacteria per well. Antibiotics/compounds were serially diluted two-fold across the 96-well plate, the last column contained no antibiotics/compounds. The inoculum was added to the plate containing antibiotic/compound and incubated for 16-24 h at 35+/−2° C. […] MIC assays were carried out in biological triplicates.
Using Clinical and Laboratory Standards Institute guidelines for antimicrobial sensitivity testing [Clinical and Laboratory Standards Institute.

[6] = system: Klebsiella pneumoniae strain MS6771; assay: MIC by broth microdilution (CLSI); type: cell-based
VRE [7] = assay: Murine wound infection model; type: in vivo, BALB/c mice; settings: 4 days
Text: For wound infection, 4-7 week old female BALB/c mice were used and housed in individual cages [Pandey, M. et al. A synthetic M protein peptide synergizes with a CXC chemokine protease to induce vaccine-mediated protection against virulent streptococcal pyoderma and bacteremia. J Immunol 194, 5915-5925, doi:10.4049/jimmunol.1500157 (2015)]. The neck area of the mice was shaved and residual hair removed using Nair (Church & Dwight) prior to the experiment. On the day of infection, mice were anesthetized by inhalation of methoxyflurane and a small superficial scarification was made on the shaved skin using a metal file. For infection, 5×10^6-2×10^7 CFU GAS or 5×10^5-2×10^6 CFU MRSA/VRE were applied onto the scarified skin. […] Mice were treated with ointment twice daily and a total of 9 treatments were applied. […] […] After four days treatment, the mice were euthanized, the scarified skin was excised, and washed twice in PBS by vortexing for 30 seconds. […] Each treatment group contained six mice and statistical significance was calculated using an unpaired t-test (non-parametric).

[8] = system: MCR-1 E. coli strain MS8345; assay: MIC by broth microdilution (CLSI); type: cell-based, Escherichia coli; settings: for antibiotic sensitivity of resistant strain: MCR1-positive E. coli MS8345; for MIC: MCR-1 E. coli
Protocol: as §1
J Infect Dis. 1995 171:890-6). E. coli strain MS8345 is a MCR-1 resistant clinical isolate supplied by Prof. D. L. Paterson, University of Queensland Centre for Clinical Research.
(§6) (2017)]. […] MIC assays were carried out in biological triplicates.

[9] = system: P. aeruginosa strain 253-43-C; assay: MIC by broth microdilution (CLSI); type: cell-based, Pseudomonas aeruginosa
Protocol: They were obtained from Jan Bell, Australian Centre of Microbial Resistance Ecology (ACARE), University of Adelaide, Australia.
as §6

[10] = K. pneumoniae, RA-HQ-12: 16 μM, Zn: 64 μM
[11] = MRSA, RA-HQ-12: 3.5 μM, Zn: […], oxacillin with 2% NaCl
[12] = MRSA, RA-HQ-12: 3.5 μM, oxacillin with 2% NaCl

Molecule: CN(C)Cc1ccc2c(Cl)cc(Cl)c(O)c2n1 [PBT2, 5,7-dichloro-2-[(dimethylamino)methyl]-8-quinolinol]
- MIC ([1]; Streptococcus pyogenes, GAS HKU 16, substance alone, read-out: MIC): > 30 µM
- MIC ([2]; Enterococcus, VRE RBWH1, substance alone, read-out: MIC): 1.9 µM
- antibacterial activity (GAS): neither PBT2 nor zinc(II) ions (in the form of zinc chloride) displayed antibacterial activity
- antibacterial activity (MRSA): neither PBT2 nor zinc(II) ions (in the form of zinc chloride) displayed antibacterial activity
- antibacterial activity (VRE [3]): neither PBT2 nor zinc(II) ions (in the form of zinc chloride) displayed antibacterial activity
- safety and tolerability [4]: safe and well tolerated
- MIC ([5]; Staphylococcus aureus, MRSA USA300, substance alone): 3.75 µM

Molecule: CN[C@H](CC(C)C)C(=O)N[C@H]1C(=O)N[C@@H](CC(N)=O)C(=O)N[C@H]2C(=O)N[C@H]3C(=O)N[C@H](C(=O)N[C@H](C(=O)O)c4cc(O)cc(O)c4-c4cc3ccc4O)[C@H](O)c3ccc(c(Cl)c3)Oc3cc2cc(c3O[C@@H]2O[C@H](CO)[C@@H](O)[C@H](O)[C@H]2O[C@H]2C[C@](C)(N)[C@H](O)[C@H](C)O2)Oc2ccc(cc2Cl)[C@H]1O [Vancomycin, vancomycin]
- MIC ([1]; Streptococcus pyogenes, GAS, RA-HQ-12: 3.5 μM): 0.5 µg/mL
- MIC ([1]; Streptococcus pyogenes, GAS, RA-HQ-12: 3.5 μM, Zn: […]): 0.25 µg/mL
- MIC ([1]; Streptococcus pyogenes, GAS, Zn: […] (RA-HQ-12 panel)): 0.5 µg/mL
- MIC ([1]; Streptococcus pyogenes, GAS, RA-HQ-12: 0 μM, Zn: 0 μM): 0.5 µg/mL
- MIC ([2]; Enterococcus, VRE, VRE RBWH1, CQ: 0 μM, Zinc: 0 μM): > 128 µg/mL
- MIC ([2]; Enterococcus, VRE, VRE RBWH1, CQ: 2.5 μM): > 128 µg/mL
- MIC ([2]; Enterococcus, VRE, VRE RBWH1, CQ: 2.5 μM, Zinc: 32 μM): 1 µg/mL
- MIC ([2]; Enterococcus, VRE, VRE RBWH1, PBT2: 0 μM, Zinc: 0 μM): > 128 µg/mL
- MIC ([2]; Enterococcus, VRE, VRE RBWH1, PBT2: 1.75 μM): > 128 µg/mL
- MIC ([2]; Enterococcus, VRE, VRE RBWH1, PBT2: 1.75 μM, Zinc: […]): 1 to 2 µg/mL
- MIC ([2]; Enterococcus, VRE, VRE RBWH1, Zinc: 32 μM): > 128 µg/mL
- MIC ([2]; Enterococcus, VRE, VRE RBWH1, Zinc: […] (PBT2 panel)): > 128 µg/mL
- MIC ([2]; Enterococcus, VRE, RA-HQ-12: 0 μM, Zn: 0 μM): > 128 µg/mL
- MIC ([2]; Enterococcus, VRE, RA-HQ-12: 3.5 μM): > 128 µg/mL
- MIC ([2]; Enterococcus, VRE, RA-HQ-12: 3.5 μM, Zn: […]): > 128 µg/mL
- MIC ([2]; Enterococcus, VRE, Zn: […] (RA-HQ-12 panel)): > 128 µg/mL
- antibiotic sensitivity of resistant strain ([2]; VRE RBWH1): became sensitive
- MIC ([6]; K. pneumoniae, RA-HQ-12: 16 μM): >128 µg/mL
- MIC [6, 10]: >128 µg/mL
- MIC ([6]; K. pneumoniae, Zn: 64 μM): >128 µg/mL
- MIC ([6]; Klebsiella pneumoniae, MS6771): > 128 µg/mL
- bacterial burden at the site of infection (CFUs) (VRE [7]; 1.5% vancomycin in combination with 2 mM PBT2 + 25 mM ZnSO4, ointment twice daily): significantly reducing infection
- bacterial burden at the site of infection (CFUs) (VRE [7]; treatment alone: 2 mM PBT2 + 25 mM ZnSO4, or 1.5% vancomycin, ointment twice daily): Neither antibiotic nor sub-inhibitory concentrations of PBT2+zinc(II) ions alone reduced bacterial burden
- MIC [5, 11]: 1 µg/mL
- MIC [5, 12]: 1 µg/mL
- MIC ([5]; Staphylococcus aureus): 1 µg/mL

Molecule: [Zn+2] [Zinc(II) ion]
- MIC ([1]; GAS HKU 16, substance alone): 2000 µM
- MIC ([2]; VRE RBWH1, substance alone): 3000 µM
- antibacterial activity (GAS): neither PBT2 nor zinc(II) ions (in the form of zinc chloride) displayed antibacterial activity
- antibacterial activity (MRSA): neither PBT2 nor zinc(II) ions (in the form of zinc chloride) displayed antibacterial activity
- antibacterial activity (VRE [3]): neither PBT2 nor zinc(II) ions (in the form of zinc chloride) displayed antibacterial activity
- MIC ([5]; MRSA USA300, substance alone): 3000 µM

Molecule: polymyxin B
- antibiotic resensitization ([1]; GAS HKU16, RA-HQ-12+zinc(II) ions (ZnSO4)): resensitize
- antibiotic sensitivity of resistant strain ([1]; GAS HKU16, addition of sub-inhibitory PBT2+zinc(II) ions): became sensitive
- MIC ([1]; GAS, RA-HQ-12: 3.5 μM, Zn: […]): 4^# μg/mL
- MIC ([1]; Streptococcus pyogenes HKU16, CQ: 0 μM, Zinc: 0 μM): 64 µg/mL
- MIC ([1]; Streptococcus pyogenes HKU16, CQ: 6 μM): 32 µg/mL
- MIC ([1]; Streptococcus pyogenes HKU16, CQ: 6 μM, Zinc: 80 μM): 1 µg/mL
- MIC ([1]; Streptococcus pyogenes HKU16, PBT2: 0 μM, Zinc: 0 μM): 64 to 128 µg/mL
- MIC ([1]; Streptococcus pyogenes HKU16, PBT2: 4.75 μM): 32 µg/mL
- MIC ([1]; Streptococcus pyogenes HKU16, PBT2: 4.75 μM, Zinc: […]): 1 to 2 µg/mL
- MIC ([1]; Streptococcus pyogenes HKU16, Zinc: 80 μM): 64 µg/mL
- MIC ([1]; Streptococcus pyogenes HKU16, Zinc: […] (PBT2 panel)): 64 µg/mL
- MIC ([2]; VRE RBWH1, CQ: 2.5 μM): 64 µg/mL
- MIC ([2]; VRE RBWH1, CQ: 2.5 μM, Zinc: 32 μM): 0.5 to 1 µg/mL
- MIC ([2]; VRE RBWH1, PBT2: 1.75 μM): 64 µg/mL
- MIC ([2]; VRE RBWH1, PBT2: 1.75 μM, Zinc: […]): 0.5 µg/mL
- antibiotic resensitization ([2]; VRE RBWH1, RA-HQ-12+zinc(II) ions (ZnSO4)): resensitize
- antibiotic sensitivity of resistant strain ([2]; VRE RBWH1): became sensitive
- MIC ([2]; VRE, RA-HQ-12: 3.5 μM): 16 µg/mL
- MIC ([2]; VRE, RA-HQ-12: 3.5 μM, Zn: […]): 4^# μg/mL
- MIC [6, 10]: 4^# μg/mL
- antibiotic resensitization ([6]; Klebsiella pneumoniae MS6771, RA-HQ-12+zinc(II) ions (ZnSO4)): resensitize
- antibiotic sensitivity of resistant strain ([6]; Klebsiella pneumoniae MS6771, addition of sub-inhibitory PBT2+zinc(II) ions): became sensitive
- antibiotic sensitivity of resistant strain ([6]; Klebsiella pneumoniae MS6771, combination with PBT2, no zinc): resulted in sensitivity
- MIC ([6]; Klebsiella pneumoniae, CQ: 0 μM, Zinc: 0 μM): 64 µg/mL
- MIC ([6]; Klebsiella pneumoniae, CQ: 64 μM): 2 µg/mL
- MIC ([6]; Klebsiella pneumoniae, CQ: 64 μM, Zinc: 256 μM): 2 µg/mL
- MIC ([6]; Klebsiella pneumoniae, PBT2: 0 μM, Zinc: 0 μM): 32 to 64 µg/mL
- MIC ([6]; Klebsiella pneumoniae, Zinc: 256 μM (CQ panel)): 32 to 64 µg/mL
- MIC ([6]; Klebsiella pneumoniae, Zinc: 256 μM (PBT2 panel)): 32 to 64 µg/mL
- antibiotic sensitivity of resistant strain ([8]; addition of sub-inhibitory PBT2+zinc(II) ions): became sensitive
- antibiotic sensitivity of resistant strain ([8]; combination with PBT2, no zinc): resulted in sensitivity
- MIC ([8]; CQ: 0 μM, Zinc: 0 μM): 8 µg/mL
- MIC ([8]; CQ: 5 μM): 2 to 4 µg/mL
- MIC ([8]; CQ: 5 μM, Zinc: 25 μM): 1 µg/mL
- MIC ([8]; PBT2: 0 μM, Zinc: 0 μM): 8 µg/mL
- MIC ([8]; PBT2: 7 μM): 1 µg/mL
- MIC ([8]; PBT2: 7 μM, Zinc: 200 μM): 0.5 µg/mL
- MIC ([8]; Zinc: 25 μM): 8 µg/mL
- MIC ([8]; Zinc: 200 μM): 8 µg/mL
- MIC ([9]; PBT2): 1 µg/mL
- MIC ([9]; Untreated): 8 µg/mL
- MIC ([5]; MRSA USA300, CQ: 1 μM): 64 µg/mL
- MIC ([5]; MRSA USA300, CQ: 1 μM, Zinc: 32 μM): 2 µg/mL
- MIC ([5]; MRSA USA300, PBT2: 0 μM, Zinc: 0 μM): 64 µg/mL
- MIC ([5]; MRSA USA300, PBT2: 2 μM): 64 µg/mL
- MIC ([5]; MRSA USA300, PBT2: 2 μM, Zinc: 50 μM): 2 µg/mL
- antibiotic resensitization ([5]; MRSA USA 300, RA-HQ-12+zinc(II) ions (ZnSO4)): resensitize
- MIC ([5]; MRSA USA300, Zinc: 50 μM): 64 µg/mL
- antibiotic sensitivity of resistant strain ([5]; MRSA USA300, addition of sub-inhibitory PBT2+zinc(II) ions): became sensitive
- MIC [5, 11]: 4^# μg/mL
- MIC [5, 12]: 32 µg/mL
